# Source: patent US11760979B2, “Isolated liver cancer stem cell and method for drug screening thereof” (LICENSE BIOTECHNOLOGY Co., Ltd., priority 2020, dated 2023)
# “Also recorded” adds a separate entry of the source.
# Tests used:
# TW-1 cell line [1] = test: In vitro drug screening test (cell survival rate); assay type: cell-based, rat
# Method: (§1) The purpose of the method of drug screening is to evaluate the inhibitory ability of the active ingredients of currently used anticancer drugs against the growth, recurrence, or metastasis of TW-1 cell line, and HTC cell line was used as control group. The active ingredient of anticancer drug be used in the embodiment was Sorafenib.
# TW-1 cell line and HTC cell line were seeded in 96-well plate with 2×10^5 cells/well, 1 μM, 5 μM, 10 μM, 20 μM and 40 μM of Sorafenib were respectfully used for treating cells once the cells were attached, and the negative control group cells were treated with PBS.
# TW-1 cell line [2] = test: In vivo drug screening test, TW-1 cell line transplanted subcutaneously; parameters: species or system BALB/cAnN.Cg-Foxnl^nu/CrlNarl nude mice; details: nude mice
# Method: as §1, with “BALB/cAnN.Cg-Foxnl^nu/CrlNarl nude mice were” for “HTC cell line was”, “the animal model.” for “control group.”
# BALB/cAnN.Cg-Foxnl^nu/CrlNarl nude mice were grouped into 3 groups, control group (Control), low-dose Sorafenib group (10 mg/kg body weight (BD)) and high-dose Sorafenib group (50 mg/kg body weight (BD)), 5 mice in each group.
# Transplanting of TW-1 cell line into BALB/cAnN.Cg-Foxnl^nu/CrlNarl nude mice were processed with 5×10^5 cells by subcutaneous injection for evaluating the effect of anticancer drugs against TW-1 cell line.
# After the tumor grew to appropriate size (100-150 mm^3) that was able to be measured at the TW-1 cell line transplanted position, the mice were treated with Sorafenib (Sorafenib groups) or PBS (control group) once per three days, and tumor generation of the mice were measured for 30 days the tumor volume of mice were recorded once per five days.
structure (smiles),measurement,setting,value
CNC(=O)c1cc(Oc2ccc(NC(=O)Nc3ccc(Cl)c(C(F)(F)F)c3)cc2)ccn1 [Sorafenib],cell growth,"TW-1 cell line [1]; 40 μM Sorafenib, 24 and 48 hours post-treatment","the cell growth was decreased; also recorded: had the ability to inhibit growth of TW-1 cell line, but TW-1 cell line was not killed"
same,"sensitivity to Sorafenib (cell survival rate), TW-1 cell line compared with HTC cell line","TW-1 cell line [1]; concentration lower than 10 μM, after treatment for 24 hours, HTC cell line as control",higher sensitivity
same,drug tolerance of TW-1 cell line compared with HTC cell lines,"TW-1 cell line [1]; high concentration (up to 40 μM), more obvious after 48 hours post-treatment",much higher drug tolerance
same,tumor volume of high-dose Sorafenib group vs low-dose Sorafenib group,"TW-1 cell line [2]; 50 mg/kg vs 10 mg/kg body weight, once per three days, 30 days",significantly higher than that in low-dose Sorafenib group mice
same,tumor volume of Sorafenib treating groups vs control group,"TW-1 cell line [2]; 10 and 50 mg/kg body weight, once per three days, measured for 30 days",significantly higher than that in control group
same,metastasis of TW-1 cell line to lung,"TW-1 cell line [2]; high-dose Sorafenib (50 mg/kg body weight), drug dependent",high-dose Sorafenib induced high metastasis
